These results are taken from paper PMC10955468 (Frontiers in Pharmacology, 2024).

Usually inhibition stands for the change of the read-out against control, counted positive when it falls.

Assay [1] addresses T1, TMEM206 (PAORAC/ASOR) (Homo sapiens, UniProt Q9H813).
T1 construct: gene PACC1; native full-length channel in HCT116 cells (whole-cell patch clamp); homo-trimer; current absent in TMEM206 knockout clones
The assay can be described thus: whole-cell patch clamp, HCT116. The assay is classed as cell-based. The note with it: HCT-116; read-out: % residual current at 100 μM. (In general: The patch-clamp technique gives a direct electrical read-out from membranes.)

Assay [2] has as its target T1, TMEM206 (PAORAC/ASOR). The assay can be described thus: whole-cell patch clamp, HCT116. It is filed as cell-based. Particulars: HCT-116, read-out: % inhibition at 100 μM.

T1 sequence (Q9H813 whole entry): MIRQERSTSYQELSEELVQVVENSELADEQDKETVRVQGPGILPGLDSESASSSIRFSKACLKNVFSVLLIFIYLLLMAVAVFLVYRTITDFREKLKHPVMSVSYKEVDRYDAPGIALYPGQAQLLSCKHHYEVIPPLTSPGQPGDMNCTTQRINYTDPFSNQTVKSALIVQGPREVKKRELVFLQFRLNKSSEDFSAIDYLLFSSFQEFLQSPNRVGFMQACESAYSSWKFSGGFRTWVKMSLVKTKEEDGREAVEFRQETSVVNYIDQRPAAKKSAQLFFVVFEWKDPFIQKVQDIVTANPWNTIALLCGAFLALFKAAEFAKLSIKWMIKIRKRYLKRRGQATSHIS

Turning to `O=C(O)c1cccnc1Nc1cccc(C(F)(F)F)c1` [niflumic acid], at TMEM206 (PAORAC/ASOR) [1], the remaining activity at 100 µM was determined as 38%.

Regarding `O=C(O)c1ccccc1Nc1cccc(C(F)(F)F)c1` [flufenamic acid], the inhibition at 100 µM at TMEM206 (PAORAC/ASOR) [2] was determined as 28%.

Take `Cc1cc(Cl)ccc1OC(C)C(=O)Nc1cc(Cl)ccc1C(=O)O` (stereo not drawn) [LBA, 4-chloro-2-(2-(4-chloro-2-methylphenoxy)propanamido)benzoic acid]: the remaining activity at 100 µM on TMEM206 (PAORAC/ASOR) [1] is 53%.
